Measurements reported in patent US20050282863A1, “Novel-N substituted dihydrobenzothiepino, dihydrobenzoxepino and tetrahydro benzocyclohepta indoles as selective estrogen receptor modulators” (Council of Scientific & Industrial Research, priority 2004, published 2005).
Where two headings read alike, the source gives them in different places.

Experiments:
MCF-7 cells = test: Antiproliferative/cytotoxic activity in cultured MCF-7 cells (SRB assay); assay type: cell-based; conditions: Homo sapiens, MCF7, 48 h, MCF-7, 48 h
Protocol: The procedure is based on the following methods: New calorimetric assay for anticancer drug screening, Skehan et al., J Natn Cancer Inst, 82,1107, 1990 and Feasibility of a high-flux anticancer drug screen using a diverse panel of cultured human tumor cell lines, J Natn Cancer Inst, 83,757, 1991.
A fully confluent flask of MCF-7 cells in trypsinized and 10^4 cells/well are plated in a 96 welled flat bottomed plate in 200 μl Minimum Essential Medium (MEM), pH 7.4 and allowed to attach for 24 h at 37° C. in a humidified CO2 incubator. Subsequently, the compound of invention dissolved in DMSO or ethanol is added at a specified concentration and further incubated for 48 h as before. The cells are then fixed in 50 μl cold 50% TCA and incubated for 1 h at 4° C. The supernatant is discarded and the plate is washed five times with deionized water and air-dried. 100 μl of 0.4% (w/v) Sulforhodamine B (SRB) in 1% acetic acid is added to each well and incubated at room temperature for 30 minutes. Unbound SRB is removed by five washes with chilled 1% acetic acid and the plate is air-dried. 200 μl of unbuffered 10 mM Tris base is added to solublize the bound stain for 5 minutes at room temperature and O.D. is read at 560 nm in a plate reader. The graph is plotted between O.D. and concentration and LC50 is calculated with respect to tamoxifen, which is used as a positive control.

[1] = system: immature ovariectomized rats; test: Estrogen agonistic activity: increase in uterine weight in immature ovariectomized rats; assay type: in vivo, rat; conditions: 3 days, percent of ovariectomized + vehicle group; for change in vivo at 3 mg/kg: daily dose 3 mg/kg
[2] = system: chick fetal bones in culture; test: Inhibition in PTH-induced resorption of 45Ca from chick fetal bones in culture (antiresorptive activity in vitro); assay type: cell-based; conditions: Gallus gallus, 96 h, PTH-induced 45Ca resorption, 96 h culture, read-out: T/C ratio
Protocol: 5 μl of each concentration are used for evaluation of antiresorptive activity in vitro. In control experiments, 5 μl of appropriate solvent is used in lieu of the test compound. Femur bones are isolated from chick embryos on day 11 post-ovulation. The adhering soft connective tissue is completely removed. Each femur bone is then placed in a drop of phosphate buffered saline (PBS) and is transferred to BGJb culture medium containing ^45CaCl2 and incubated for 2 h. Labeled femur bones are washed 2-3 times with PBS and transferred to BGJb medium containing parathyroid hormone and cultured for 96 h in the presence or absence of the compound of invention or the vehicle in BGJb medium. Contralateral femur of each fetus serves as corresponding control. Culture medium with the respective treatment in each well is changed after 48 h. On termination of the culture at 96 h, bones are transferred to 0.1 N HCl for 24 h. Radioactivity due to ^45Ca in the spent medium collected at 48 and 96 h of culture and HCl extract at 96 h of culture is quantified by Liquid Scintillation Spectrophotometer in 10 ml of the scintillation fluid. Bone resorbing activity is expressed as percentage of ^45Ca released into the culture medium and the effect of the compound of invention as percent of the corresponding contra-lateral control or T/C ratio as shown below: [formula]
Appropriate solvents are selected from solvents like water, physiological saline, phosphate buffered saline, phosphate buffer, DMSO alone or in a suitable combination thereof.

adult female rats = test: Post-coital antifertility efficacy in adult female rats; assay type: in vivo, rat; conditions: daily dose 10 mg/kg, oral, days 1-7 post-coitum
[3] = system: immature ovariectomized rats; test: Estrogen antagonistic activity: inhibition in 17α-ethynylestradiol induced uterine weight gain in immature ovariectomized rats; assay type: in vivo, rat; conditions: Rattus norvegicus, 72 h, 3 days, read-out: Percent inhibition in 17α-ethynylestradiol induced uterine weight gain; for inhibition in vivo at 10 mg/kg/day: daily dose 10 mg/kg with 0.02 mg/kg 17-alfa-ethynylestradiol

Structure (SMILES) | CC50 (MCF-7 cells; read-out: LC50, Test-1) [µM] | change in vivo at 1 mg/kg ([1]; Rattus norvegicus, 72 h, daily dose 1 mg/kg) [%] | change in vivo at 3 mg/kg ([1]; Rattus norvegicus, 72 h) [%] | Percent increase in uterine weight ([1]; daily dose 10 mg/kg) [%] | activity at 25 µM ([2]; 25 μM) [%] | activity at 50 µM ([2]; 50 μM) [%] | activity at 200 µM ([2]; 200 μM) [%] | % Efficacy (adult female rats) | inhibition in vivo at 1 mg/kg/day ([3]; daily dose 1 mg/kg with 0.02 mg/kg 17-alfa-ethynylestradiol) [%] | inhibition in vivo at 10 mg/kg/day [3] [%] | CC50 (MCF-7 cells; read-out: LC50, Test-3) [µM] | change in vivo at 10 mg/kg ([1]; Rattus norvegicus, 72 h, daily dose 10 mg/kg) [%] | activity at 100 µM ([2]; 100 μM) [%]
CCCCN(C)CCCCCn1c2c(c3ccccc31)CCSc1ccccc1-2 [Example number 13, 12-[5-(N-butylmethylamino)pentyl]-6,7-dihydro-12H-benzothiepino [5,4-b]indole] | 24 | 8 | 2.53 | 126.00 | 33 | 41 | 61 | Inactive | 12 | 37 | – | – | –
c1ccc2c(c1)SCCc1c-2n(CCCCCCN2CCCCC2)c2ccccc12 [Example number 18, 12-[6-(Piperidine-1-yl)hexyl]-6,7-dihydro-12H-benzothiepino [5,4-b]indole] | 18.2 | – | 1.76 | – | – | – | – | Inactive | – | 19 | 9.63 | 51 | 160
